Legend:
[1] = cited from earlier work
[2] = Binary supramolecular self-assembly systems of polymer and target: guest concentration over incubation time (Comparative Example 2); assay type: physicochemical; settings: for Times that of the initial medium / Concentration of guest molecule in solution: 6 h
Description: Experiments were conducted according to the steps in Comparative Example 1, and quantitative analysis was carried out using the analytical method for each target to investigate the regulation ability […] stacking.

[3] = Binary (carrier), ternary and quaternary supramolecular self-assembly systems of polymer, carrier building block and target: guest concentration over incubation time (Examples 1-56); assay type: physicochemical; settings: 6 h
Procedure, shortened: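 Targets were incubated at 37 °C in pH 2.0–7.4 buffers with 0.5% polymer alone or with carrier building blocks, after 0.5 h sonication for ternary systems, and shaken at 200 rpm. Samples at 0.5–6 h were centrifuged and diluted ≥10-fold, and dissolved target was quantified by HPLC; surfactant was added if needed.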

[4] = Guest molecule concentration after incubation in initial medium without polymer (Comparative Example 1); assay type: physicochemical; settings: 37° C.
Procedure, shortened: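 Dissolved guest content measured by HPLC of centrifuged supernatants (37° C., 13000 rpm, 5 min) sampled at 0.5 h, 3 h and 6 h. Incubation was polymer-free at 37° C.±0.5° C. in buffers of pH 2.0-7.4; nominal loading was set by maximum clinical dose.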

[5] = binary system with 0.5% polymer 101, incubation 0.5 h
[6] = binary system with 0.5% polymer 101, incubation 3 h
[7] = binary system with 0.5% polymer 101, incubation 6 h
[8] = binary system with 0.5% polymer 102, incubation 0.5 h
[9] = binary system with 0.5% polymer 102, incubation 3 h
[10] = binary system with 0.5% polymer 102, incubation 6 h
[11] = binary system with 0.5% polymer 103, incubation 0.5 h
[12] = binary system with 0.5% polymer 103, incubation 3 h
[13] = binary system with 0.5% polymer 103, incubation 6 h
[14] = binary system with 0.5% polymer 106, incubation 0.5 h
[15] = binary system with 0.5% polymer 106, incubation 3 h
[16] = binary system with 0.5% polymer 106, incubation 6 h
[17] = binary system with 0.5% polymer 107, incubation 0.5 h
[18] = binary system with 0.5% polymer 107, incubation 3 h
[19] = binary system with 0.5% polymer 107, incubation 6 h
[20] = binary system with 0.5% polymer 110, incubation 0.5 h
[21] = binary system with 0.5% polymer 110, incubation 3 h
[22] = binary system with 0.5% polymer 110, incubation 6 h
[23] = binary system with 0.5% polymer 104, incubation 0.5 h
[24] = binary system with 0.5% polymer 104, incubation 3 h
[25] = binary system with 0.5% polymer 104, incubation 6 h
[26] = ternary: 102H (0.25% where stated) + 301, carrier % not stated
[27] = ternary: 102H (0.25% where stated) + 302, carrier % not stated

| Concentration of the target in the solution measured after different incubation time [2, 5] [µg/mL] | Concentration of the target in the solution measured after different incubation time [2, 6] [µg/mL] | Concentration of the target in the solution measured after different incubation time [2, 7] [µg/mL] | Concentration of the target in the solution measured after different incubation time [2, 8] [µg/mL] | Concentration of the target in the solution measured after different incubation time [2, 9] [µg/mL] | Concentration of the target in the solution measured after different incubation time [2, 10] [µg/mL] | Concentration of the target in the solution measured after different incubation time [2, 11] [µg/mL] | Concentration of the target in the solution measured after different incubation time [2, 12] [µg/mL] | Concentration of the target in the solution measured after different incubation time [2, 13] [µg/mL] | Concentration of the target in the solution measured after different incubation time [2, 14] [µg/mL] | Concentration of the target in the solution measured after different incubation time [2, 15] [µg/mL] | Concentration of the target in the solution measured after different incubation time [2, 16] [µg/mL] | Concentration of the target in the solution measured after different incubation time [2, 17] [µg/mL] | Concentration of the target in the solution measured after different incubation time [2, 18] [µg/mL] | Concentration of the target in the solution measured after different incubation time [2, 19] [µg/mL] | Concentration of the target in the solution measured after different incubation time [2, 20] [µg/mL] | Concentration of the target in the solution measured after different incubation time [2, 21] [µg/mL] | Concentration of the target in the solution measured after different incubation time [2, 22] [µg/mL] | Times that of the initial medium ([2]; binary: 0.5% 102H) [times] | Compound | LogD7.4 or Log P [1] | also measured |
| --- | --- | --- | --- | --- | --- | --- | --- | --- | --- | --- | --- | --- | --- | --- | --- | --- | --- | --- | --- | --- | --- |
| 272.9 | 221.8 | 193.8 | 90.1 | 75.5 | 72.2 | 102.4 | 88.4 | 84.4 | 150.2 | 131.1 | 128.2 | 236.9 | 151.4 | 137.8 | 53.8 | 45.8 | 43.0 | 1.7 | CNC(=O)c1ccc(N2C(=S)N(c3ccc(C#N)c(C(F)(F)F)c3)C(=O)C2(C)C)cc1F [Enzalutamide] | 4.16 | Times that of the initial medium ([2]; binary: 0.5% 107): 1.9 times; Concentration of guest molecule in solution ([3]; binary: 0.25% 312): 135 µg/mL; Concentration of guest molecule in solution ([3]; binary: 0.25% 318): 175 µg/mL; Concentration of guest molecule in solution ([3]; quaternary: 0.25% 202 (102H+107) + 0.25% 312): 371 µg/mL; Concentration of guest molecule in solution ([3]; quaternary: 0.25% 202 (102H+107) + 0.25% 313): 533 µg/mL; Concentration of guest molecule in solution ([3]; quaternary: 0.25% 202 (102H+107) + 0.25% 318): 451 µg/mL; Concentration of guest molecule in solution ([3]; quaternary: 0.25% 202 (102H+107) + 0.25% 321): 623 µg/mL; Concentration of guest molecule measured after different incubated time ([4]; 0.5 h, 0.2% SDS in pH 6.8 phosphate buffer): 62.3 µg/mL; Concentration of guest molecule measured after different incubated time ([4]; 3 h, 0.2% SDS in pH 6.8 phosphate buffer): 57.1 µg/mL; Concentration of guest molecule measured after different incubated time ([4]; 6 h, 0.2% SDS in pH 6.8 phosphate buffer): 59.0 µg/mL |
| 56.0 | 75.2 | 46.2 | 56.5 | 71.5 | 89.5 | 34.3 | 28.5 | 27.7 | 41.5 | 35.6 | 32.5 | 46.5 | 43.5 | 39.3 | 28.7 | 34.7 | 33.5 | 10.4 | CCCNS(=O)(=O)Nc1ncnc(OCCOc2ncc(Br)cn2)c1-c1ccc(Br)cc1 [Macitentan] | – | LogP [1]: LogP 3.55; Concentration of guest molecule in solution ([2]; binary: 0.5% 101): 46.2 µg/mL; Times that of the initial medium ([2]; binary: 0.5% 101): 4.3 times; Concentration of guest molecule in solution ([2]; binary: 0.5% 102H): 89.5 µg/mL; Concentration of guest molecule in solution ([3]; Comparative Example 4, quaternary: 0.25% 201 + 0.25% 305): 59.5 µg/mL; Concentration of guest molecule in solution ([3]; Comparative Example 4, quaternary: 0.25% 201 + 0.25% 309): 29.2 µg/mL; Concentration of guest molecule in solution ([3]; quaternary: 0.25% 201 (102H+101) + 0.25% 307): 362.5 µg/mL; Concentration of guest molecule in solution ([3]; quaternary: 0.25% 201 (102H+101) + 0.25% 308): 516.0 µg/mL; Concentration of guest molecule in solution ([3]; quaternary: 0.25% 201 (102H+101) + 0.25% 313): 474.6 µg/mL; Concentration of guest molecule in solution ([3]; quaternary: 0.25% 201 (102H+101) + 0.25% 320): 562.4 µg/mL; Concentration of guest molecule in solution ([3]; quaternary: 0.25% 201 (102H+101) + 0.25% 321): 596.3 µg/mL; Concentration of guest molecule measured after different incubated time ([4]; 0.5 h, pH 6.8 phosphate buffer): 35.0 µg/mL; Concentration of guest molecule measured after different incubated time ([4]; 3 h, pH 6.8 phosphate buffer): 33.8 µg/mL; Concentration of guest molecule measured after different incubated time ([4]; 6 h, pH 6.8 phosphate buffer): 28.0 µg/mL |
| – | – | – | 109.4 | 117.2 | 138.9 | 8.4 | 6.9 | 0.9 | – | – | – | – | – | – | – | – | – | 13.5 | O=C1[C@H](CC[C@H](O)c2ccc(F)cc2)[C@@H](c2ccc(O)cc2)N1c1ccc(F)cc1 [Ezetimibe] | 4.56 | Concentration of the target in the solution measured after different incubation time [2, 23]: 6.8 µg/mL; Concentration of the target in the solution measured after different incubation time [2, 24]: 3.6 µg/mL; Concentration of the target in the solution measured after different incubation time [2, 25]: 2.7 µg/mL; Times that of the initial medium ([2]; binary: 0.5% 101): 18 times; Concentration of guest molecule in solution ([2]; binary: 0.5% 102H): 86.6 µg/mL; Concentration of guest molecule in solution [3, 26]: 168.1 µg/mL; Times that of the initial medium [3, 26]: 26 times; Concentration of guest molecule in solution [3, 27]: 188.6 µg/mL; Times that of the initial medium [3, 27]: 29.5 times; Concentration of guest molecule measured after different incubated time ([4]; 0.5 h, 0.05% SDS in pH 6.8 phosphate buffer): 6.6 µg/mL; Concentration of guest molecule measured after different incubated time ([4]; 3 h, 0.05% SDS in pH 6.8 phosphate buffer): 6.2 µg/mL; Concentration of guest molecule measured after different incubated time ([4]; 6 h, 0.05% SDS in pH 6.8 phosphate buffer): 6.4 µg/mL |
| 45.5 | 29.3 | 28.6 | 76.8 | 26.2 | 27.8 | 12.9 | 11.3 | 7.6 | 7.3 | 7.9 | 6.5 | 68.2 | 9.7 | 6.1 | – | – | – | – | COc1cc2nccc(Oc3ccc(NC(=O)NC4CC4)c(Cl)c3)c2cc1C(N)=O [Lenvatinib] | 2.52 | Concentration of the target in the solution measured after different incubation time [2, 23]: 37.8 µg/mL; Concentration of the target in the solution measured after different incubation time [2, 24]: 42.7 µg/mL; Concentration of the target in the solution measured after different incubation time [2, 25]: 67.5 µg/mL; Concentration of guest molecule in solution ([2]; binary: 102H, % not stated at the place): 59.5 µg/mL; Concentration of guest molecule in solution ([2]; binary: 104, % not stated at the place): 47.6 µg/mL; Concentration of guest molecule in solution ([3]; quaternary: 0.25% 205 (102H+104) + 310): 116.4 µg/mL; Concentration of guest molecule in solution ([3]; quaternary: 0.25% 205 (102H+104) + 313, carrier % not stated): 112.1 µg/mL; Concentration of guest molecule measured after different incubated time ([4]; 0.5 h, pH 6.8 phosphate buffer): 7.6 µg/mL; Concentration of guest molecule measured after different incubated time ([4]; 3 h, pH 6.8 phosphate buffer): 1.7 µg/mL; Concentration of guest molecule measured after different incubated time ([4]; 6 h, pH 6.8 phosphate buffer): 0.9 µg/mL |
